Source: US20220389009A1, “SUBSTITUTED 1,6-NAPHTHYRIDINE INHIBITORS OF CDK5” (Goldfinch Bio, Inc., priority 2019, published 2022)

How the values were obtained:
[1] = target: CDK5/p25 (Homo sapiens, UniProt Q00535); experiment: CDK5 mobility shift assay (enzymatic activity of CDK5/p25); assay type: biochemical; details: for IC50: 0.154 nM CDK5/p25, FL peptide 29, 60 min at room temperature, read-out: CDK5 IC50; for CDK5/CDK2 specificity: fold more active against CDK5 than CDK2
Method in brief: (§1)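 Carna CDK5/p25 (0.154 nM) or CDK2/CycA2 (1.25 nM) was preincubated 30 min with compound, ATP ([…] for CDK5; 37 μM for CDK2) and 10 mM MgCl2 in HEPES pH 7.5. The reaction was started with 1.5 μM FL peptide (29 for CDK5, 18 for CDK2) and run 60 min (CDK5) or 120 min (CDK2) at room temperature. Product was read by mobility shift, with IC50 from a 4-parameter fit.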

[2] = target: CDK2/CycA2 (Homo sapiens, UniProt P24941); experiment: CDK2 mobility shift assay (enzymatic activity of CDK2/CycA2); assay type: biochemical; details: 1.25 nM CDK2/CycA2, 37 μM ATP, FL Peptide 18, 120 min at room temperature; read-out: CDK2 IC50
Method in brief: as §1

Sequence of CDK5/p25 (Q00535 whole entry): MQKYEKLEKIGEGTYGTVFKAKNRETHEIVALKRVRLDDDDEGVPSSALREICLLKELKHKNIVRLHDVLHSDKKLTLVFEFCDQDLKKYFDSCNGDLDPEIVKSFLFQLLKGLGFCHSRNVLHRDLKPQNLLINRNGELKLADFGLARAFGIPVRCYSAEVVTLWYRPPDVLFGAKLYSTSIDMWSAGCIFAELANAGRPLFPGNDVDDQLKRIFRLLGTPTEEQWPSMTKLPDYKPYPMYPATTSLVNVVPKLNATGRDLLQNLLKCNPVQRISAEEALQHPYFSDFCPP
Sequence of CDK5/p25 (Q15078 99-307 partner limits assumed): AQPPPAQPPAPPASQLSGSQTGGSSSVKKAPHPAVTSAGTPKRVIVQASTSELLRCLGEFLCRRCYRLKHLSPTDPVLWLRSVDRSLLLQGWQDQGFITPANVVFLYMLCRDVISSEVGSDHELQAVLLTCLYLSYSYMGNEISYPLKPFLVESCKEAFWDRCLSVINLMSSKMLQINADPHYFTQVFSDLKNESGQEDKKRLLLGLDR

SMILES	IC50 [1] [µM]	CDK5/CDK2 specificity [1]	IC50 [2] [µM]
CN1CCC(C(C)(O)c2ccc3cnc(Nc4ccc(-c5cccnc5)cc4F)cc3n2)CC1 (stereo not drawn) [Compound 329]	< 0.01	++ (greater than 10-fold and less than or equal to 100-fold more active against CDK5 than CDK2)	0.01 to 0.1
O=S(=O)(c1ccc2cnc(Nc3ccc(-n4ccc(CO)n4)cc3F)cc2n1)C1CCNCC1 [Compound 123, [1-(3-fluoro-4-[[2-(piperidine-4-sulfonyl)-1,6-naphthyridin-7-yl]amino]phenyl)pyrazol-3-yl]methanol]	0.01 to 0.1	++ (greater than 10-fold and less than or equal to 100-fold more active against CDK5 than CDK2)	0.1 to 1
CN1CCC(S(=O)(=O)c2ccc3cnc(Nc4ccc(N5CCCC5)cc4)cc3n2)CC1 [Compound 301]	< 0.01	+++ (greater than 100-fold more active against CDK5 than CDK2)	0.1 to 1
CC(C)c1ccc(Nc2cc3nc(S(=O)(=O)C4CCN(C)CC4)ccc3cn2)cc1 [Compound 298]	< 0.01	+++ (greater than 100-fold more active against CDK5 than CDK2)	0.01 to 0.1
COc1ccc(-c2ccc(Nc3cc4nc(C(C)C5CCN(C)CC5)ccc4cn3)c(F)c2)cc1 (stereo not drawn) [Compound 322]	< 0.01	+++ (greater than 100-fold more active against CDK5 than CDK2)	0.1 to 1
COc1cncc(Nc2cc3nc(S(=O)(=O)C4CCN(C)CC4)ccc3cn2)c1 [Compound 267]	0.01 to 0.1	++ (greater than 10-fold and less than or equal to 100-fold more active against CDK5 than CDK2)	0.1 to 1
CN1CCC([C@@](C)(O)c2ccc3cnc(Nc4ccc(-c5cccc(C(N)=O)c5)cc4F)cc3n2)CC1 [Compound 364, (R)-3′-fluoro-4′-((2-(1-hydroxy-1-(1-methylpiperidin-4-yl)ethyl)-1,6-naphthyridin-7-yl)amino)-[1,1′-biphenyl]-3-carboxamide]	< 0.01	++ (greater than 10-fold and less than or equal to 100-fold more active against CDK5 than CDK2)	0.01 to 0.1
CN1CCC(NS(=O)(=O)c2ccc3cnc(Nc4ccc(-n5ccc(CO)n5)cc4F)cc3n2)CC1 [Compound 203, 7-([2-fluoro-4-[3-(hydroxymethyl)pyrazol-1-yl]phenyl]amino)-N-(1-methylpiperidin-4-yl)-1,6-naphthyridine-2-sulfonamide]	0.1 to 1	+ (10-fold or less more active against CDK5 than CDK2)	> 1
COc1ccc(-c2ccc(Nc3cc4nc(C(C)C5CCN(C)CC5)ccc4cn3)c(F)c2)cc1 (stereo not drawn) [Compound 310]	0.01 to 0.1	++ (greater than 10-fold and less than or equal to 100-fold more active against CDK5 than CDK2)	> 1
CN1CCC(C(C)(O)c2ccc3cnc(Nc4ccc(-c5cccnc5)cc4F)cc3n2)CC1 (stereo not drawn) [Compound 327]	0.1 to 1	++ (greater than 10-fold and less than or equal to 100-fold more active against CDK5 than CDK2)	> 1
CN1CCC(C(C)(F)c2ccc3cnc(Nc4ccc(-n5cccn5)cc4F)cc3n2)CC1 (single isomer, unassigned) [Compound 363, 2-[1-fluoro-1-(1-methylpiperidin-4-yl)ethyl]-N-[2-fluoro-4-(pyrazol-1-yl)phenyl]-1,6-naphthyridin-7-amine]	0.01 to 0.1	++ (greater than 10-fold and less than or equal to 100-fold more active against CDK5 than CDK2)	> 1
CN1CCC2(CC1)CC2c1ccc2cnc(Nc3ccc(-n4cccn4)cc3F)cc2n1 (stereo not drawn) [Compound 164, N-[2-fluoro-4-(pyrazol-1-yl)phenyl]-2-[6-methyl-6-azaspiro[2.5]octan-1-yl]-1,6-naphthyridin-7-amine]	0.1 to 1	++ (greater than 10-fold and less than or equal to 100-fold more active against CDK5 than CDK2)	> 1
CN1CCC(C(C)(O)c2ccc3cnc(Nc4ccc(-c5cccc(=O)[nH]5)cc4F)cc3n2)CC1 (stereo not drawn) [Compound 393]	< 0.01	++ (greater than 10-fold and less than or equal to 100-fold more active against CDK5 than CDK2)	0.01 to 0.1
CN1CCC(S(=O)(=O)c2ccc3cnc(Nc4ccc5c(c4)C(=O)NCC5)cc3n2)CC1 [Compound 278]	< 0.01	++ (greater than 10-fold and less than or equal to 100-fold more active against CDK5 than CDK2)	0.1 to 1
O=C(O)[C@@H]1CNCC[C@H]1Nc1ccc2cnc(Nc3ccc(-n4ccc(CO)n4)cc3F)cc2n1 [Compound 114, (3R,4R)-4-[[7-([2-fluoro-4-[3-(hydroxymethyl)pyrazol-1-yl]phenyl]amino)-1,6-naphthyridin-2-yl]amino]piperidine-3-carboxylic acid]	> 1	+ (10-fold or less more active against CDK5 than CDK2)	> 1
CN1CCC(S(=O)(=O)c2ccc3cnc(Nc4cccc(C5CC5)c4)cc3n2)CC1 [Compound 274]	< 0.01	+++ (greater than 100-fold more active against CDK5 than CDK2)	0.01 to 0.1
CN1CCC(Sc2ccc3cnc(Nc4ccc(-n5ccc(CO)n5)cc4F)cc3n2)CC1 [Compound 127, [1-[3-fluoro-4-([2-[(1-methylpiperidin-4-yl)sulfanyl]-1,6-naphthyridin-7-yl]amino)phenyl]pyrazol-3-yl]methanol]	< 0.01	+++ (greater than 100-fold more active against CDK5 than CDK2)	0.01 to 0.1
COc1cc(-c2ccc(Nc3cc4nc(C(C)C5CCN(C)CC5)ccc4cn3)c(F)c2)ccn1 (stereo not drawn) [Compound 339]	0.01 to 0.1	++ (greater than 10-fold and less than or equal to 100-fold more active against CDK5 than CDK2)	> 1
CN1CCC(C(C)(O)c2ccc3cnc(Nc4ccc(S(C)(=O)=O)cc4)cc3n2)CC1 (stereo not drawn) [Compound 370]	< 0.01	+ (10-fold or less more active against CDK5 than CDK2)	< 0.01
CN1CCC(S(=O)(=O)c2ccc3cnc(Nc4ccc(N(C)C)cc4)cc3n2)CC1 [Compound 306]	< 0.01	+++ (greater than 100-fold more active against CDK5 than CDK2)	0.01 to 0.1
CC(O)(c1ccc2cnc(Nc3ccc(-n4cccn4)cc3F)cc2n1)C1CCNCC1 (stereo not drawn) [Compound 196, 1-(7-[[2-fluoro-4-(pyrazol-1-yl)phenyl]amino]-1,6-naphthyridin-2-yl)-1-(piperidin-4-yl)ethanol]	< 0.01	++ (greater than 10-fold and less than or equal to 100-fold more active against CDK5 than CDK2)	0.1 to 1
CN1CCC(C(=O)c2ccc3cnc(Nc4ccc(-n5cccn5)cc4F)cc3n2)CC1 [Compound 217, N-[2-fluoro-4-(pyrazol-1-yl)phenyl]-2-(1-methylpiperidine-4-carbonyl)-1,6-naphthyridin-7-amine]	< 0.01	++ (greater than 10-fold and less than or equal to 100-fold more active against CDK5 than CDK2)	< 0.01
CN[C@H]1CC[C@@H](N(CC(=O)O)c2ccc3cnc(Nc4ccc(-n5cccn5)cc4F)cc3n2)CC1 [Compound 155, [(7-[[2-fluoro-4-(pyrazol-1-yl)phenyl]amino]-1,6-naphthyridin-2-yl)[(1s,4s)-4-(methylamino)cyclohexyl]amino]acetic acid]	0.1 to 1	++ (greater than 10-fold and less than or equal to 100-fold more active against CDK5 than CDK2)	> 1
CCC(c1ccc2cnc(Nc3ccc(-n4ccc(CO)n4)cc3F)cc2n1)C1CCN(C)CC1 (stereo not drawn) [Compound 246]	0.1 to 1	++ (greater than 10-fold and less than or equal to 100-fold more active against CDK5 than CDK2)	> 1
Nc1cccc(C(=O)Nc2cc3nc(SC4CCNCC4)ccc3cn2)c1 [Compound 136, 3-amino-N-[2-(piperidin-4-ylsulfanyl)-1,6-naphthyridin-7-yl]benzamide]	0.1 to 1	+ (10-fold or less more active against CDK5 than CDK2)	0.1 to 1
NC(c1ccc2cnc(Nc3ccc(-n4cccn4)cc3F)cc2n1)C1CCNCC1 (stereo not drawn) [Compound 165, 2-[amino(piperidin-4-yl)methyl]-N-[2-fluoro-4-(pyrazol-1-yl)phenyl]-1,6-naphthyridin-7-amine]	0.01 to 0.1	++ (greater than 10-fold and less than or equal to 100-fold more active against CDK5 than CDK2)	0.1 to 1
O=S(=O)(c1ccc2cnc(Nc3ccc(-n4ccc(CO)n4)cc3F)cc2n1)C1CCN(CC(O)CO)CC1 (stereo not drawn) [Compound 249]	< 0.01	++ (greater than 10-fold and less than or equal to 100-fold more active against CDK5 than CDK2)	0.1 to 1
CN(c1ccc2cnc(Nc3ccccc3F)cc2n1)C1CCNCC1 [Compound 100, N7-(2-fluorophenyl)-N2-methyl-N2-(piperidin-4-yl)-1,6-naphthyridine-2,7-diamine]	0.1 to 1	++ (greater than 10-fold and less than or equal to 100-fold more active against CDK5 than CDK2)	> 1
CCN1CCC(S(=O)(=O)c2ccc3cnc(Nc4ccc(-n5cccn5)cc4F)cc3n2)CC1 [Compound 384]	< 0.01	+++ (greater than 100-fold more active against CDK5 than CDK2)	0.1 to 1
